Reference: BigSolDB 2.1

N#Cc1ccncc1
solubility (mole fraction)
Details	278.15 K	283.15 K	288.15 K	293.15 K	298.15 K	303.15 K	308.15 K	313.15 K	318.15 K
in acetone	0.162	0.186	0.217	0.246	0.281	0.318	0.351	0.398	0.444
in ethanol	0.0165	0.0242	0.035	0.0506	0.073	0.101	0.142	0.19	0.261
in methanol	0.0384	0.0504	0.0656	0.0854	0.108	0.139	0.179	0.225	0.283
in n-propanol	0.042	0.0556	0.0718	0.0926	0.118	0.147	0.184	0.237	0.303
in water	0.00264	0.00327	0.004	0.00494	0.00603	0.00727	0.00875	0.0104	0.0123
